# Test results as given in publication PMC11520566, “Discovery of pyrazole-based analogs as CDK2 inhibitors with apoptotic-inducing activity: design, synthesis and molecular dynamics study” (RSC Advances, 2024).
# Key:
# [1] = tested on: HL-60(TB); experiment: NCI 60 five dose assay, Leukemia; format: cell-based, human
# [2] = tested on: SF-268; experiment: NCI 60 five dose assay, CNS cancer; format: cell-based, human
# [3] = tested on: MDA-MB-231/ATCC; experiment: NCI 60 five dose assay, Breast cancer; format: cell-based, human
# [4] = tested on: HCC-2998; experiment: NCI 60 five dose assay, Colon cancer; format: cell-based, human
# [5] = tested on: SR; experiment: NCI 60 five dose assay, Leukemia; format: cell-based, human
# [6] = tested on: OVCAR-3; experiment: NCI 60 five dose assay, Ovarian cancer; format: cell-based, human
# [7] = tested on: UACC-257; experiment: NCI 60 five dose assay, Melanoma; format: cell-based, human
# [8] = tested on: EKVX; experiment: NCI 60 five dose assay, Non-small cell lung cancer; format: cell-based, human
# [9] = tested on: HOP-92; experiment: NCI 60 five dose assay, Non-small cell lung cancer; format: cell-based, human
# [10] = molecular target: T1, CDK2/cyclin A2 (Homo sapiens, UniProt P24941); experiment: In vitro CDK2/cyclin A2 enzyme inhibition assay (ADP-Glo); format: biochemical
# T1 construct: purchased Promega
# Protocol: The studied pyrazoles 2a–g, 4, 7a–d, 8a and b, 9, and 10 were assessed for their in vitro CDK2/cyclin A2 enzyme inhibition assay at a concentration of 50 μM using the Promega CDK2/cyclinA2 kinase enzyme system coupled with the ADP-Glo assay.[32,33] The percentage enzyme activity was the lowest for five compounds, namely 4, 7a, 7d, 8a, and 9 with values of 24.7%, 17.5%, 11.5%, 27.1% and 14.5%, respectively.
# The in vitro assay of CDK2/cyclin A2 protein kinase was carried out on all the synthesized compounds. The kinase assay was performed in a 96-well white plate with a reaction volume of […]. The reaction was performed in four steps as follows: 2.5 μL of the test compounds or 5% DMSO and 5 μL of CDK2/cyclin A2 enzyme (1.6 ng) was added, and then incubated at room temperature for 30 min. Then, 5 μL of 50 μM ATP. 0.1 μg μL^−1 histone H1 was added and incubated for 10 min. The reaction was stopped by adding 12.5 μL of ADP-Glo™ Reagent and incubated for 40 min. Then 25 μL of kinase detection reagent was added to each well and incubated for 60 min before detection with luminescence (Integration time 0.5–1 s).[25,32,33]
# [11] = tested on: NCI-H226; experiment: NCI 60 five dose assay, Non-small cell lung cancer; format: cell-based, human
# [12] = tested on: SF-539; experiment: NCI 60 five dose assay, CNS cancer; format: cell-based, human
# [13] = tested on: NCI-H23; experiment: NCI 60 five dose assay, Non-small cell lung cancer; format: cell-based, human
# [14] = tested on: T-47D; experiment: NCI 60 five dose assay, Breast cancer; format: cell-based, human
# [15] = tested on: SK-MEL-5; experiment: NCI 60 five dose assay, Melanoma; format: cell-based, human
# [16] = Homo sapiens, read-out: LC50 (the source's name)
smiles,measurement,setting,value
"CC(=NNc1ccc(S(N)(=O)=O)cc1)c1ccc(NN=C2C(=O)NN=C2Nc2ccccc2)cc1 [Compound 4, 4-(2-(1-(4-(2-(5-oxo-3-(phenylamino)-1,5-dihydro-4H-pyrazol-4-ylidene)hydrazinyl)phenyl)ethylidene)hydrazinyl)benzene sulfonamide]",GI50,[1]; Homo sapiens,2.86 µM
same,CC50,[1]; [16],60.5 µM
same,Percent Growth,[1]; Log10 Concentration -4.0 Molar,-70%
same,Percent Growth,[1]; Log10 Concentration -5.0 Molar,21%
same,Percent Growth,[1]; Log10 Concentration -6.0 Molar,74%
same,Percent Growth,[1]; Log10 Concentration -7.0 Molar,87%
same,Percent Growth,[1]; Log10 Concentration -8.0 Molar,89%
same,GI50,[2]; Homo sapiens,2.22 µM
same,CC50,[2]; [16],31.5 µM
same,Percent Growth,[2]; Log10 Concentration -4.0 Molar,-77%
same,Percent Growth,[2]; Log10 Concentration -5.0 Molar,-23%
same,Percent Growth,[2]; Log10 Concentration -6.0 Molar,89%
same,Percent Growth,[2]; Log10 Concentration -7.0 Molar,95%
same,Percent Growth,[2]; Log10 Concentration -8.0 Molar,85%
same,GI50,[3]; Homo sapiens,2 µM
same,CC50,[3]; [16],8.28 µM
same,Percent Growth,[3]; Log10 Concentration -4.0 Molar,-100%
same,Percent Growth,[3]; Log10 Concentration -5.0 Molar,-63%
same,Percent Growth,[3]; Log10 Concentration -6.0 Molar,99%
same,Percent Growth,[3]; Log10 Concentration -7.0 Molar,99%
same,Percent Growth,[3]; Log10 Concentration -8.0 Molar,95%
same,GI50,[4]; Homo sapiens,2.29 µM
same,CC50,[4]; [16],21.3 µM
same,Percent Growth,[4]; Log10 Concentration -4.0 Molar,-100%
same,Percent Growth,[4]; Log10 Concentration -5.0 Molar,-26%
same,Percent Growth,[4]; Log10 Concentration -6.0 Molar,93%
same,Percent Growth,[4]; Log10 Concentration -7.0 Molar,88%
same,Percent Growth,[4]; Log10 Concentration -8.0 Molar,80%
same,GI50,[5]; Homo sapiens,1.74 µM
same,CC50,[5]; [16],23.6 µM
same,Percent Growth,[5]; Log10 Concentration -4.0 Molar,-87%
same,Percent Growth,[5]; Log10 Concentration -5.0 Molar,-28%
same,Percent Growth,[5]; Log10 Concentration -6.0 Molar,75%
same,Percent Growth,[5]; Log10 Concentration -7.0 Molar,93%
same,Percent Growth,[5]; Log10 Concentration -8.0 Molar,85%
same,GI50,[6]; Homo sapiens,1.87 µM
same,CC50,[6]; [16],12.5 µM
same,Percent Growth,[6]; Log10 Concentration -4.0 Molar,-100%
same,Percent Growth,[6]; Log10 Concentration -5.0 Molar,-45%
same,Percent Growth,[6]; Log10 Concentration -6.0 Molar,86%
same,Percent Growth,[6]; Log10 Concentration -7.0 Molar,89%
same,Percent Growth,[6]; Log10 Concentration -8.0 Molar,82%
same,GI50,[7]; Homo sapiens,3.97 µM
same,CC50,[7]; [16],75.5 µM
same,Percent Growth,[7]; Log10 Concentration -4.0 Molar,-59%
same,Percent Growth,[7]; Log10 Concentration -5.0 Molar,17%
same,Percent Growth,[7]; Log10 Concentration -6.0 Molar,99%
same,Percent Growth,[7]; Log10 Concentration -7.0 Molar,93%
same,Percent Growth,[7]; Log10 Concentration -8.0 Molar,89%
same,GI50,[8]; Homo sapiens,5.39 µM
same,CC50,[8]; [16],> 100 µM
same,Percent Growth,[8]; Log10 Concentration -4.0 Molar,-48%
same,Percent Growth,[8]; Log10 Concentration -5.0 Molar,36%
same,Percent Growth,[8]; Log10 Concentration -6.0 Molar,89%
same,Percent Growth,[8]; Log10 Concentration -7.0 Molar,102%
same,Percent Growth,[8]; Log10 Concentration -8.0 Molar,98%
same,GI50,[9]; Homo sapiens,1.3 µM
same,CC50,[9]; [16],30.7 µM
same,Percent Growth,[9]; Log10 Concentration -4.0 Molar,-89%
same,Percent Growth,[9]; Log10 Concentration -5.0 Molar,-13%
same,Percent Growth,[9]; Log10 Concentration -6.0 Molar,58%
same,Percent Growth,[9]; Log10 Concentration -7.0 Molar,81%
same,Percent Growth,[9]; Log10 Concentration -8.0 Molar,74%
same,percentage enzyme activity,[10]; at 50 μM,24.7%
same,IC50,"[10]; n = 3, read-out: IC50 against CDK2/cyclin A2",3.82 µM
same,Relative activity,"[10]; supplement S1, DMSO = 100, screen at 50 μM",24.7
same,GI50,[11]; Homo sapiens,3.31 µM
same,CC50,[11]; [16],35.1 µM
same,Percent Growth,[11]; Log10 Concentration -4.0 Molar,-100%
same,Percent Growth,[11]; Log10 Concentration -5.0 Molar,10%
same,Percent Growth,[11]; Log10 Concentration -6.0 Molar,93%
same,Percent Growth,[11]; Log10 Concentration -7.0 Molar,102%
same,Percent Growth,[11]; Log10 Concentration -8.0 Molar,96%
same,GI50,[12]; Homo sapiens,1.58 µM
same,CC50,[12]; [16],8.56 µM
same,Percent Growth,[12]; Log10 Concentration -4.0 Molar,-100%
same,Percent Growth,[12]; Log10 Concentration -5.0 Molar,-59%
same,Percent Growth,[12]; Log10 Concentration -6.0 Molar,77%
same,Percent Growth,[12]; Log10 Concentration -7.0 Molar,94%
same,Percent Growth,[12]; Log10 Concentration -8.0 Molar,89%
same,GI50,[13]; Homo sapiens,2.54 µM
same,CC50,[13]; [16],23.1 µM
same,Percent Growth,[13]; Log10 Concentration -4.0 Molar,-98%
same,Percent Growth,[13]; Log10 Concentration -5.0 Molar,-23%
same,Percent Growth,[13]; Log10 Concentration -6.0 Molar,99%
same,Percent Growth,[13]; Log10 Concentration -7.0 Molar,105%
same,Percent Growth,[13]; Log10 Concentration -8.0 Molar,105%
same,GI50,"[14]; Homo sapiens, T47D",2.22 µM
same,CC50,"[14]; Homo sapiens, T47D, read-out: LC50 (the source's name)",23.9 µM
same,Percent Growth,[14]; Log10 Concentration -4.0 Molar,-88%
same,Percent Growth,[14]; Log10 Concentration -5.0 Molar,-27%
same,Percent Growth,[14]; Log10 Concentration -6.0 Molar,91%
same,Percent Growth,[14]; Log10 Concentration -7.0 Molar,98%
same,Percent Growth,[14]; Log10 Concentration -8.0 Molar,90%
same,GI50,[15]; Homo sapiens,3.32 µM
same,CC50,[15]; [16],35.8 µM
same,Percent Growth,[15]; Log10 Concentration -4.0 Molar,-100%
same,Percent Growth,[15]; Log10 Concentration -5.0 Molar,12%
same,Percent Growth,[15]; Log10 Concentration -6.0 Molar,91%
same,Percent Growth,[15]; Log10 Concentration -7.0 Molar,100%
same,Percent Growth,[15]; Log10 Concentration -8.0 Molar,95%
